The text below walks through data of US20150245613A1 (priority 2012, published 2015).

Experiment [1] deals with wheat Fusarium head blight. It counts as in vivo, Fusarium graminearum. Conditions: cut wheat ears, 5 days after inoculation.
The test system of another experiment is wheat brown rust. Description: Test Example 5: controlling effect on wheat brown rust, field test (cultivar NORIN No. 61), Colby. It counts as in vivo, Puccinia recondita. The note with it: 20 days after spray. An excerpt:
A (theoretical) preventive value obtained in a case where the chemical suspension is sprayed=A1+((100−A1)×A2)/100
where A1 and A2 represent (i) the preventive value obtained in a case where the compound I-1 is sprayed and (ii) the preventive value obtained in a case where fluxapyroxad is sprayed.
Wheat seeds (cultivar: NORIN No. 61) were sown in a field in autumn of one (1) year earlier than a year when chemicals were sprayed, and the chemicals were sprayed over wheat plants at the flowering stage of the wheat plants. […] Specifically, the wheat seeds were sown in two rows with 30 cm inter-row spacing in the field in the autumn. (i) Chemical suspensions each of which contained the compound I-1 and Fluxapyroxad, (ii) a chemical suspension containing the compound I-1 and (iii) chemical suspensions each of which contained Fluxapyroxad, were diluted with water so that each ingredient of the chemical suspensions was in a predetermined amount to be used. Each of the chemical suspensions was then sprayed over the wheat plants at the flowering stage in the year. After the spray of the chemical suspensions, a pot, in which diseased wheat plants with brown rust were planted, was put in each test plot between the two rows of the wheat plants so that the wheat plants were prompted to get infected with wheat brown rust. Each test was conducted in three test plots, each of which test plots is of 0.5 m×4 m (2 m^2). In 20 days after the spray of the chemical suspensions, the occurrence of wheat brown rust was investigated in 20 flag leaves which were selected at random from one of the three test plots. An index of the occurrence (index of disease severity of wheat brown rust) was then calculated. A theoretical preventive value (an expected preventive value) obtained in a case where the chemical suspension containing the compound I-1 and Fluxapyroxad is sprayed was calculated, by use of the above Colby's formula (see Test Example 1), on the basis of (i) a preventive value obtained in a case where only the compound I-1 is sprayed and (ii) a preventive value obtained in a case where only fluxapyroxad is sprayed.

The test system of experiment [2] is wheat Fusarium head blight. In kind it is in vivo, Fusarium graminearum. Conditions: cut wheat ears, 5 days after inoculation. This is another data set of the same source.

Read-outs that look alike come from different tables or passages of the source.

`Cn1cc(C(=O)Nc2ccccc2-c2cc(F)c(F)c(F)c2)c(C(F)F)n1` [Fluxapyroxad, 3-(difluoromethyl)-1-methyl-N-(3′,4′,5′-trifluorobiphenyl-2-yl)pyrazole-4-carboxamido]: the Actual preventive value in experiment [1] (Compound I-1 0 g/ha, Fluxapyroxad 10 g/ha) came to 3; in experiment [1] (Compound I-1 0 g/ha, Fluxapyroxad 20 g/ha), 0; in experiment [1] (Compound I-1 0 g/ha, Fluxapyroxad 40 g/ha), 4; in the experiment with wheat brown rust (Compound I-1 0 g/ha, Fluxapyroxad 7.5 g/ha, from average disease occurrence area ratios of flag leaves), 29.3; with wheat brown rust (Compound I-1 0 g/ha, Fluxapyroxad 7.5 g/ha, from disease occurrence ratios of flag leaves), 6.8; in the experiment with wheat brown rust (Compound I-1 0 g/ha, Fluxapyroxad 30 g/ha, from average disease occurrence area ratios of flag leaves), 80.6. Besides, the Actual preventive value was determined as 64.4 in the experiment with wheat brown rust (Compound I-1 0 g/ha, Fluxapyroxad 30 g/ha, from disease occurrence ratios of flag leaves); 8 in experiment [2] (Compound I-2 0 g/ha, Fluxapyroxad 10 g/ha); 16 in experiment [2] (Compound I-2 0 g/ha, Fluxapyroxad 20 g/ha); 14 in experiment [2] (Compound I-2 0 g/ha, Fluxapyroxad 30 g/ha); 9 in experiment [2] (Compound I-2 0 g/ha, Fluxapyroxad 40 g/ha).

Turning to `C[C@]1(CCl)CC[C@@H](Cc2ccc(F)cc2)[C@]1(O)Cn1cncn1` (racemic) [Compound I-2, (1RS,2SR,5SR)-2-chloromethyl-5-(4-fluorobenzyl)-2-methyl-1-(1H-1,2,4-triazole-1-ylmethy)cyclopentanol], the Actual preventive value in experiment [2] (Compound I-2 5 g/ha, Fluxapyroxad 0 g/ha) is recorded as 34; in experiment [2] (Compound I-2 10 g/ha, Fluxapyroxad 0 g/ha), 45; in experiment [2] (Compound I-2 15 g/ha, Fluxapyroxad 0 g/ha), 62; in experiment [2] (Compound I-2 20 g/ha, Fluxapyroxad 0 g/ha), 78.

With `C[C@]1(CCl)CC[C@@H](Cc2ccc(Cl)cc2)[C@]1(O)Cn1cncn1` (racemic) [Compound I-1, (1RS,2SR,5SR)-5-(4-chlorobenzyl)-2-chloromethyl-2-methyl-1-(1H-1,2,4-triazole-1-ylmethyl)cyclopentanol], the Actual preventive value in experiment [1] (Compound I-1 5 g/ha, Fluxapyroxad 0 g/ha) is listed as 13; in experiment [1] (Compound I-1 10 g/ha, Fluxapyroxad 0 g/ha), 39; in experiment [1] (Compound I-1 20 g/ha, Fluxapyroxad 0 g/ha), 61; with wheat brown rust (Compound I-1 7.5 g/ha, Fluxapyroxad 0 g/ha, from average disease occurrence area ratios of flag leaves) it was 42.6; with wheat brown rust (Compound I-1 7.5 g/ha, Fluxapyroxad 0 g/ha, from disease occurrence ratios of flag leaves) it was 16.4.
